Measured values reported in US20230114207A1, “THE COMBINATION OF CYCLIN DEPENDENT KINASE 7 INHIBITOR AND IMMUNOTHERAPY FOR TREATMENT OF CANCER” (Dana-Farber Cancer Institute, Inc., priority 2019, published 2023).

System: INSM1, ASCL1, NFIB and MYC in DMS79 and GLC16
Test: RT-qPCR of super enhancer (SE)-associated genes
Type: cell-based, human
Settings: 24 hr
Protocol: Cell pellets were collected and then subjected to total RNA extraction using RNeasy Plus Mini Kit (QIAGEN, Cat #74136) according to the manufacturer's instructions, or using TRIzol:Chloroform phase-separation by centrifugation followed by RNA precipitation using isopropanol. The extracted RNA was reversely transcribed into cDNA using the High-Capacity RNA-to-cDNA™ Kit (Thermo Fisher Scientific, Cat #4387406) according to the manufacturer's instructions. The obtained cDNA samples were diluted and used for RT-qPCR. PowerUp™ SYBR™ Green Master Mix (Thermo Fisher Scientific, Cat #A25742) or TaqMan Gene Expression Master Mix (Life Technologies, Cat #4369514). Gene specific primers with sequences listed in Table 3 were used for PCR amplification and detection on the StepOnePlus™ Real-Time PCR System (Thermo Fisher Scientific). RT-qPCR data were normalized to Actb (mouse cells) or GUSB (human cells) and presented as fold changes of gene expression in the test sample compared to the control.

## CN(C)C/C=C/C(=O)Nc1ccc(C(=O)Nc2cccc(Nc3ncc(Cl)c(-c4c[nH]c5ccccc45)n3)c2)cc1 [THZ1, reference compound]
  expression of super enhancer (SE)-associated genes including INSM1, ASCL1, NFIB and MYC: significant reduction
